The results in this text go back to ChEMBL document CHEMBL1140510, “New 1,2,3,4-tetrahydropyrrolo[3,4-b]indole derivatives as selective CB2 receptor agonists” (Bioorg Med Chem Lett, 2007).

Broadly, the pKi is the Ki on a negative log10 scale, so that one unit is a factor of ten. One may read the pEC50 as the negative decadic logarithm of the EC50, by convention in mol/L. A high value points to a low EC50. A word on the Emax: it is the greatest response seen or fitted, relative to the assay's reference.

One assay concerns the target Cannabinoid receptor 1 (Homo sapiens, UniProt P21554). In words: Binding affinity to human CB1 receptor.
Assay [1] concerns the target T1, Cannabinoid receptor 2 (Homo sapiens, UniProt P34972). Kind of assay: Binding affinity to human CB2 receptor.
The next assay is filed under the species Homo sapiens. Kind of assay: Selectivity for human CB2 receptor over human CB1 receptor.
Assay [2] addresses T1, Cannabinoid receptor 2. Kind of assay: Agonist activity at human CB2 receptor by GTPgamma[35S] assay. Format: functional.
Assay [3] addresses T1, Cannabinoid receptor 2. Kind of assay: Agonist activity at human CB2 receptor by GTPgamma[35S] assay relative to WIN-55212-2. Format: functional.

pEC50, pKi: −log10 of the molar value.

Cannabinoid receptor 1, sequence (P21554 whole entry): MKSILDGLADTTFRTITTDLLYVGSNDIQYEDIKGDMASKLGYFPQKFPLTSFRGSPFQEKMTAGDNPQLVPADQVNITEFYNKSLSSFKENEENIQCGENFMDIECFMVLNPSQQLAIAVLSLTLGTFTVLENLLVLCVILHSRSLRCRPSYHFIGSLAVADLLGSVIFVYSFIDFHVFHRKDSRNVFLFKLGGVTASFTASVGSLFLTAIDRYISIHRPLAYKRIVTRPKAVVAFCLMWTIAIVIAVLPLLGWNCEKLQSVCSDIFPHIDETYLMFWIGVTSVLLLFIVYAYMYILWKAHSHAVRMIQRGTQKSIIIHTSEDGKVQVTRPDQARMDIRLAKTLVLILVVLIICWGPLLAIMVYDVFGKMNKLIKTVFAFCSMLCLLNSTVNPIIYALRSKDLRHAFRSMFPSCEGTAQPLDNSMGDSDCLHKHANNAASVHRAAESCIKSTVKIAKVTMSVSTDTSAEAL
T1 sequence (P34972 whole entry): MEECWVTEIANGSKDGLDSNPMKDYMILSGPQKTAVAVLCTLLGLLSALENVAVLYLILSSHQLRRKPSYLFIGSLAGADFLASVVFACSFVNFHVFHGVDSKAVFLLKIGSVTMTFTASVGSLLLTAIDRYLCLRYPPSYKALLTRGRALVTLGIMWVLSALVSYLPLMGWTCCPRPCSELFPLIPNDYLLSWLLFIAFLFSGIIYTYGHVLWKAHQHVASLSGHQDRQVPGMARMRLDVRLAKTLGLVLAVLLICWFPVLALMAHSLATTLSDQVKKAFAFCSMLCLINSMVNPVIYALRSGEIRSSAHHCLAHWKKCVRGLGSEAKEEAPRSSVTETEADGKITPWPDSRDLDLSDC

In the case of `CCS(=O)(=O)n1c2c(c3cc(C(=O)N4CCOCC4)ccc31)CN(C1CCCC1)C2`, the results for the pKi at Cannabinoid receptor 1 and at Cannabinoid receptor 2 [1] were below 5.10 and 6.51, respectively. Further, in the assay listed under Homo sapiens, the Ratio Ki is above 25.
Consider `CCCN1Cc2c(n(S(=O)(=O)CC)c3ccc(C(=O)N4CCC(C)CC4)cc23)C1`, for which the pKi at Cannabinoid receptor 1 is 6.22; at Cannabinoid receptor 2 [1] it was 7.95. Besides, the Ratio Ki in the assay listed under Homo sapiens was found to be 54.4. This molecule had a pEC50 at Cannabinoid receptor 2 [2] of 9.10. Also, the Emax at Cannabinoid receptor 2 [3] is 104%.
Regarding `CC1CCN(C(=O)c2ccc3c(c2)c2c(n3S(C)(=O)=O)CN(C3CCCC3)C2)CC1`, the pKi at Cannabinoid receptor 1 was 6.55; at Cannabinoid receptor 2 [1], 8.10. The Ratio Ki in the assay listed under Homo sapiens came out at 35.3. Also, on Cannabinoid receptor 2 [2], the pEC50 was 9.22. Besides, the Emax at Cannabinoid receptor 2 [3] stood at 105%.
For `CCS(=O)(=O)n1c2c(c3cc(C(=O)N4CCC(C)CC4)ccc31)CN(C1CCCC1)C2` the same measures were 7.18, 8.15, 9.4, 9.10 and 110%.
For the molecule `CCS(=O)(=O)n1c2c(c3cc(C(=O)N4CCC(C)CC4)ccc31)CN(CCC1CCCCC1)C2`, the pKi on Cannabinoid receptor 1 was 5.56; on Cannabinoid receptor 2 [1] it was 5.70. For the same molecule, in the assay listed under Homo sapiens, the Ratio Ki turned out to be 1.4.
In the case of `CCS(=O)(=O)n1c2c(c3cc(C(=O)N4CCC(F)CC4)ccc31)CN(C1CCCC1)C2`, the values for the pKi on Cannabinoid receptor 1 and at Cannabinoid receptor 2 [1] were 5.54 and 7.35, respectively. For the same molecule, the Ratio Ki in the assay listed under Homo sapiens was 65.9.
Take `CCCCN(C)C(=O)c1ccc2c(c1)c1c(n2S(=O)(=O)CC)CN(C2CCCC2)C1`: the pKi at Cannabinoid receptor 1 is 6.11; on Cannabinoid receptor 2 [1], 7.65. In addition, the Ratio Ki in the assay listed under Homo sapiens came to 34.9. Moreover, the pEC50 on Cannabinoid receptor 2 [2] was 8.40. At Cannabinoid receptor 2 [3], the Emax was determined as 111%.
Regarding `CC1CCN(C(=O)c2ccc3c(c2)c2c(n3S(=O)(=O)C(C)C)CN(C3CCCC3)C2)CC1`, the pKi on Cannabinoid receptor 1 was 6.82; at Cannabinoid receptor 2 [1] it was 8.38. For the same molecule, the Ratio Ki in the assay filed under Homo sapiens amounted to 35.7. Further, the pEC50 on Cannabinoid receptor 2 [2] is 9.30. In addition, the Emax at Cannabinoid receptor 2 [3] was 105%.
Take `CCS(=O)(=O)n1c2c(c3cc(C(=O)N4CCC(C)CC4)ccc31)CN(CC1CCCCC1)C2`: the pKi on Cannabinoid receptor 1 was 6.47; on Cannabinoid receptor 2 [1], 6.03. Also, in the assay listed under Homo sapiens, the Ratio Ki amounted to 0.4.
On to `CCS(=O)(=O)n1c2c(c3cc(C(=O)N4CCC(C)CC4)ccc31)CN(CC1CC1)C2`, for which, at Cannabinoid receptor 2 [1], the pKi was 8.20. Besides, the pEC50 on Cannabinoid receptor 2 [2] was 9.30.
In the case of `CC1CCN(C(=O)c2ccc3c(c2)c2c(n3S(=O)(=O)C3CC3)CN(C3CCCC3)C2)CC1`, the figures for the pKi at Cannabinoid receptor 1 and on Cannabinoid receptor 2 [1] were 6.86 and 8.03, respectively. Further, in the assay filed under Homo sapiens, the Ratio Ki came to 14.6. Also, the pEC50 on Cannabinoid receptor 2 [2] is 8.82. On Cannabinoid receptor 2 [3], the Emax came to 101%.
Turning to `CCCS(=O)(=O)n1c2c(c3cc(C(=O)N4CCC(C)CC4)ccc31)CN(C1CCCC1)C2`, the results for the pKi at Cannabinoid receptor 1 and on Cannabinoid receptor 2 [1] were 6.71 and 7.65, respectively. Besides, in the assay filed under Homo sapiens, the Ratio Ki amounted to 8.7. Also, on Cannabinoid receptor 2 [2], the pEC50 is 8.17. Besides, the Emax on Cannabinoid receptor 2 [3] was 90%.
Take `CC1CCN(C(=O)c2ccc3c(c2)c2c(n3C)CN(C3CCCC3)C2)CC1`: the pKi at Cannabinoid receptor 1 was 5.74; on Cannabinoid receptor 2 [1], 7.07. Further, the Ratio Ki in the assay listed under Homo sapiens was 21.4.
With `C=CCn1c2c(c3cc(C(=O)N4CCC(C)CC4)ccc31)CN(C1CCCC1)C2`, the pKi was 6.16 at Cannabinoid receptor 1 and 7.63 at Cannabinoid receptor 2 [1]. Besides, in the assay listed under Homo sapiens, the Ratio Ki was 29.8. Also, at Cannabinoid receptor 2 [2], the pEC50 was 8.30. The Emax on Cannabinoid receptor 2 [3] turned out to be 92%.
As to `C=CCN1Cc2c(n(S(=O)(=O)CC)c3ccc(C(=O)N4CCC(C)CC4)cc23)C1`, the pKi was 6.58 at Cannabinoid receptor 1 and 8.19 on Cannabinoid receptor 2 [1]. Further, in the assay filed under Homo sapiens, the Ratio Ki was 41.1. In addition, the negative-log EC50 (pEC50) on Cannabinoid receptor 2 [2] is 9.52. The Emax at Cannabinoid receptor 2 [3] amounted to 104%.
In the case of `CCCCN1Cc2c(n(S(=O)(=O)CC)c3ccc(C(=O)N4CCC(C)CC4)cc23)C1`, the values for the pKi on Cannabinoid receptor 1 and on Cannabinoid receptor 2 [1] were 6.47 and 7.77, respectively. For the same molecule, the Ratio Ki in the assay listed under Homo sapiens turned out to be 20.3. The molecule further had a pEC50 on Cannabinoid receptor 2 [2] of 8.57. The Emax at Cannabinoid receptor 2 [3] came to 105%.
Regarding `CCS(=O)(=O)n1c2c(c3cc(C(=O)N4CCC(C)CC4)ccc31)CN(C1CCCCO1)C2` (stereo not drawn), the negative logarithm of the Ki (pKi) was 5.21 on Cannabinoid receptor 1 and 7.75 at Cannabinoid receptor 2 [1]. The Ratio Ki in the assay filed under Homo sapiens was determined as 351. Further, the pEC50 on Cannabinoid receptor 2 [2] is 8.77. Also, at Cannabinoid receptor 2 [3], the Emax came out at 107%.
On to `CCS(=O)(=O)n1c2c(c3cc(C(=O)N(C)C(C)C)ccc31)CN(C1CCCC1)C2`, for which the pKi on Cannabinoid receptor 1 is 5.14; on Cannabinoid receptor 2 [1], 6.97. In addition, in the assay listed under Homo sapiens, the Ratio Ki is 67.5.
For the molecule `CC1CCN(C(=O)c2ccc3[nH]c4c(c3c2)CN(C2CCCC2)C4)CC1`, the values for the pKi at Cannabinoid receptor 1 and on Cannabinoid receptor 2 [1] were below 5.10 and 5.33, respectively.
Regarding `CCS(=O)(=O)n1c2c(c3cc(C(=O)N4CCC(C)CC4)ccc31)CN(Cc1ccccc1)C2`, the pKi at Cannabinoid receptor 1 is 5.90; on Cannabinoid receptor 2 [1] it was 7.43. The Ratio Ki in the assay filed under Homo sapiens turned out to be 34.4.
Regarding `CCS(=O)(=O)n1c2c(c3cc(C(=O)N4CCC(OC)CC4)ccc31)CN(C1CCCC1)C2`, the pKi on Cannabinoid receptor 1 is 5.67; on Cannabinoid receptor 2 [1], 7.56. For the same molecule, the Ratio Ki in the assay filed under Homo sapiens was found to be 77.2.
In the case of `CCS(=O)(=O)n1c2c(c3cc(C(=O)N4CCC(C)CC4)ccc31)CN(C(C)C)C2`, the figures for the pKi at Cannabinoid receptor 1 and at Cannabinoid receptor 2 [1] were 6.38 and 8.05, respectively. In the assay listed under Homo sapiens, the Ratio Ki was found to be 47. Also, the pEC50 at Cannabinoid receptor 2 [2] is 9.05. Moreover, the Emax on Cannabinoid receptor 2 [3] is 101%.
Take `CC(=O)n1c2c(c3cc(C(=O)N4CCC(C)CC4)ccc31)CN(C1CCCC1)C2`: the pKi is 5.63 on Cannabinoid receptor 1 and 7.06 at Cannabinoid receptor 2 [1]. Further, the Ratio Ki in the assay filed under Homo sapiens worked out at 26.5.
As to `CCS(=O)(=O)n1c2c(c3cc(C(=O)N4CCC(C)CC4)ccc31)CN(C1CCOC1)C2` (stereo not drawn), the pKi at Cannabinoid receptor 1 is 6.01; at Cannabinoid receptor 2 [1], 7.56. For the same molecule, the Ratio Ki in the assay filed under Homo sapiens came to 35.
`CC1CCN(C(=O)c2ccc3c(c2)c2c(n3S(=O)(=O)c3ccccc3)CN(C3CCCC3)C2)CC1`: the pKi on Cannabinoid receptor 1 is 6.59; on Cannabinoid receptor 2 [1] it was 7.75. Moreover, the Ratio Ki in the assay listed under Homo sapiens worked out at 14.5. The same molecule gave a pEC50 at Cannabinoid receptor 2 [2] of 7.81. For the same molecule, on Cannabinoid receptor 2 [3], the Emax is -62%.
As for `CCS(=O)(=O)n1c2c(c3cc(C(=O)N4CCC(C)CC4)ccc31)CN(C1CCOCC1)C2`, the figures for the pKi at Cannabinoid receptor 1 and on Cannabinoid receptor 2 [1] were 5.52 and 6.67, respectively. Further, the Ratio Ki in the assay filed under Homo sapiens turned out to be 14.
Take `CCS(=O)(=O)n1c2c(c3cc(C(=O)N(C)CCC(C)C)ccc31)CN(C1CCCC1)C2`: the pKi at Cannabinoid receptor 1 is 5.83; at Cannabinoid receptor 2 [1], 7.42. In addition, the Ratio Ki in the assay listed under Homo sapiens worked out at 38.7.
For `CC1CCN(C(=O)c2ccc3c(c2)c2c(n3Cc3ccccc3)CN(C3CCCC3)C2)CC1` the same measures were 6.18, 6.97 and 6.2.
Regarding `CCS(=O)(=O)n1c2c(c3cc(C(=O)N4CCCCC4)ccc31)CN(C1CCCC1)C2`, the pKi is 6.09 on Cannabinoid receptor 1 and 7.76 on Cannabinoid receptor 2 [1]. Further, the Ratio Ki in the assay filed under Homo sapiens amounted to 46.7. The molecule further showed a negative-log EC50 (pEC50) at Cannabinoid receptor 2 [2] of 8.77. Also, the Emax at Cannabinoid receptor 2 [3] is 107%.
Consider `CCCCCc1cc(O)c2c(c1)CC(C)(C)[C@@H]1CCC(C)=C[C@@H]21`, for which the results for the pKi on Cannabinoid receptor 1 and at Cannabinoid receptor 2 [1] were 7.70 and 6.85, respectively. Further, the Ratio Ki in the assay filed under Homo sapiens came to 0.14. In addition, the pEC50 at Cannabinoid receptor 2 [2] was 7.87. Besides, the Emax at Cannabinoid receptor 2 [3] was 64%.
